Experimental findings from patent US20070149546A1, “4-Anilino-quinazoline derivatives as antiproliferative agents” (priority 2003, published 2007) are described below.

In assay [1] the target is T1, erbB2 (Homo sapiens, UniProt P04626). The assay can be described thus: Clone 24 phospho-erbB2 cell assay, Test (e). Format: cell-based. Also on record: a cell line that overexpresses full length wild type erbB2 protein; expressed in transfected cells; host or cells: MCF7 (breast carcinoma) derived Clone 24 cells. The note with it: inhibition of phosphorylation of erbB2 in a MCF7 (breast carcinoma) derived cell line (Clone 24). Here is the method:
The cells were resuspended in Growth Medium.
3 days later, Growth Medium was removed from the wells and replaced with 100 ul Assay Medium (phenol red free DM , 2 mM glutamine, 1.2 mg/ml G418) either with or without erbB inhibitor compound. Plates were returned to the incubator for 4 hours and then 20 μl of 20% formaldehyde solution in PBS was added to each well and the plate was left at room temperature for 30 minutes. This fixative solution was removed with a multichannel pipette, 100 μl of PBS was added to each well and then removed with a multichannel pipette and then 50 μl PBS was added to each well. Plates were then sealed and stored for up to 2 weeks at 4° C.
Immunostaining was performed at room temperature. Wells were washed once with 200 μl PBS/Tween 20 (made by adding 1 sachet of PBS/Tween dry powder (Sigma, No. P3563) to 1 L of double distilled H2O) using a plate washer then 200 μl Blocking Solution (5% Marvel dried skimmed milk (Nestle) in PBS/Tween 20) was added and incubated for 10 minutes. Blocking Solution was removed using a plate washer and 200 μl of 0.5% Triton X-100/PBS was added to permeabalise the cells. After 10 minutes, the plate was washed with 200μl PBS/Tween 20 and then 200 μl Blocking Solution was added once again and incubated for 15 minutes. […] Then this primary antibody solution was removed from the wells using a plate washer followed by two 200 μl PBS/Tween 20 washes using a plate washer. […] From now onwards, wherever possible, plates were protected from light exposure, at this stage by sealing with black backing tape. The plates were incubated for 45 minutes and then the secondary antibody solution was removed from the wells followed by two 200 ul PBS/Tween 20 washes using a plate washer. Then 100 μl PBS was added to each plate, incubated for 10 minutes and then removed using a plate washer. Then a further 100 μl PBS was added to each plate and then, without prolonged incubation, removed using a plate washer. Then 50 μl of PBS was added to each well and plates were resealed with black backing tape and stored for up to 2 days at 4° C. before analysis.
The Fluorescence signal is each well was measured using an Acumen Explorer Instrument (Acumen Bioscience Ltd.), a plate reader that can be used to rapidly quantitate features of images generated by laser-scanning. The instrument was set to measure the number of fluorescent objects above a pre-set threshold value and this provided a measure of the phosphorylation status of erbB2 protein. Fluorescence dose response data obtained with each compound was exported into a suitable software package (such as Origin) to perform curve fitting analysis. Inhibition of erbB2 phosphorylation was expressed as an IC50 value.
Target sequence in this assay (P04626 23-1255): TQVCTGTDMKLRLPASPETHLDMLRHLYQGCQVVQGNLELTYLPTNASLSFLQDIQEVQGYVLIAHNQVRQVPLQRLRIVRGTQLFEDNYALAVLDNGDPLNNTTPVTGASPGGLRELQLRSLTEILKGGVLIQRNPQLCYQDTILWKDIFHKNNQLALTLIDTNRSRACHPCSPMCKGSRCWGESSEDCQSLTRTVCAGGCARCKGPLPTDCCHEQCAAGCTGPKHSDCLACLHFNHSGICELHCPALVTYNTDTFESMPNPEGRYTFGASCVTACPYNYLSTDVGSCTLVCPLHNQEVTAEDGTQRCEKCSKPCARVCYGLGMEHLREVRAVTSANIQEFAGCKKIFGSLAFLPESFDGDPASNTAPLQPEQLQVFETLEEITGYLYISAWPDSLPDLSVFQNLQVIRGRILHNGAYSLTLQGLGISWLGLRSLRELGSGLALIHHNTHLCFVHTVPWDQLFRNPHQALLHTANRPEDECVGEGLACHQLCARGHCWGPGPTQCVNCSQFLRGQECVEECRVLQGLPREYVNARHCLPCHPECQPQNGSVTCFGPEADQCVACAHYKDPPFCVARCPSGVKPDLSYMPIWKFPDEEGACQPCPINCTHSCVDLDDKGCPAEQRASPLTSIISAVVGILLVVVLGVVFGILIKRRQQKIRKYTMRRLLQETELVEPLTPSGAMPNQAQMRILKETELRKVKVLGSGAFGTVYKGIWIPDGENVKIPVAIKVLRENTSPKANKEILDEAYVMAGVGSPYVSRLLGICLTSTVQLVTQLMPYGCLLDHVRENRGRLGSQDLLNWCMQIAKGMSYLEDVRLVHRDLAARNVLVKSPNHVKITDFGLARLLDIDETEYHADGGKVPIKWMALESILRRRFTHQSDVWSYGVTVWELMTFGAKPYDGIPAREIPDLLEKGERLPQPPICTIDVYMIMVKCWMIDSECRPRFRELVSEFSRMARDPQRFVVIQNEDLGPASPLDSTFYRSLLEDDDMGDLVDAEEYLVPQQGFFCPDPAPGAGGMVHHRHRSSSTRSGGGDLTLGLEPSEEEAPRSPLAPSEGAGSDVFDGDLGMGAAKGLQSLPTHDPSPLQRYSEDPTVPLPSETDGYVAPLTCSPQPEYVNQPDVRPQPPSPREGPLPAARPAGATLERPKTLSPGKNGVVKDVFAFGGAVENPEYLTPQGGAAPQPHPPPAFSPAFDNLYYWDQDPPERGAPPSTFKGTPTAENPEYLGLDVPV

Assay [2] concerns the target T1, erbB2. The assay can be described thus: Protein tyrosine kinase phosphorylation assay, Test (a): erbB2. The format is biochemical. Also on record: Recombinant intracellular fragments of EGFR and erbB2; made in house; host or cells: baculovirus/Sf21 insect cells. The note with it: inhibition of phosphorylation of a tyrosine containing polypeptide substrate by erbB2 kinase; ATP at Km. Here is the method: (§1) This test measures the ability of a test compound to inhibit the phosphorylation of a tyrosine containing polypeptide substrate by an enzyme selected from the EGFR kinase and erbB2 kinase.
(§2) Recombinant intracellular fragments of EGFR and erbB2 (accession numbers X00588 and X03363 respectively) were cloned and expressed in the baculovirus/Sf21 system. Lysates were prepared from these cells by treatment with ice-cold lysis buffer (20 mM N-2-hydroxyethylpiperizine-N′-2-ethanesulfonic acid (HEPES) pH 7.5, 150 mM NaCl, 10% glycerol, 1% Triton X-100, 1.5 mM MgCl2, 1 mM ethylene glycol-bis(β-aminoethyl ether) N′,N′,N′,N′-tetraacetic acid (EGTA), plus protease inhibitors and then cleared by centrifugation.
(§3) Constitutive kinase activity of these recombinant proteins was determined by their ability to phosphorylate a synthetic peptide (made up of a random co-polymer of Glutamic Acid, Alanine and Tyrosine in the ratio of 6:3:1). Specifically, Maxisorb™ 96-well immunoplates were coated with synthetic peptide (0.2 μg of peptide in a 200 μl phosphate buffered saline (PBS) solution and incubated at 4° C. overnight). Plates were washed in 50 mM HEPES pH 7.4 at room temperature to remove any excess unbound synthetic peptide. […] Reactions were terminated by the removal of the liquid components of the assay followed by washing of the plates with PBS-T (phosphate buffered saline with 0.5% Tween 20).
(§4) The immobilised phospho-peptide product of the reaction was detected by immunological methods. Firstly, plates were incubated for 90 minutes at room temperature with anti-phosphotyrosine primary antibodies that were raised in the mouse (4G10 from Upstate Biotechnology). Following extensive washing, plates were treated with Horseradish Peroxidase (HRP) conjugated sheep anti-mouse secondary antibody (NXA931 from Amersham) for 60 minutes at room temperature. After further washing, HRP activity in each well of the plate was measured colorimetrically using 22′-Azino-di-[3-ethylbenzthiazoline sulfonate (6)] diammonium salt crystals (ABTS™ from Roche) as a substrate.
(§5) Kinase inhibition for a given compound was expressed as an IC50 value. […] The range of phosphorylation was calculated from the positive (vehicle plus ATP) and negative (vehicle minus ATP) control values.
Target sequence in this assay (P04626 676-1255 limits assumed): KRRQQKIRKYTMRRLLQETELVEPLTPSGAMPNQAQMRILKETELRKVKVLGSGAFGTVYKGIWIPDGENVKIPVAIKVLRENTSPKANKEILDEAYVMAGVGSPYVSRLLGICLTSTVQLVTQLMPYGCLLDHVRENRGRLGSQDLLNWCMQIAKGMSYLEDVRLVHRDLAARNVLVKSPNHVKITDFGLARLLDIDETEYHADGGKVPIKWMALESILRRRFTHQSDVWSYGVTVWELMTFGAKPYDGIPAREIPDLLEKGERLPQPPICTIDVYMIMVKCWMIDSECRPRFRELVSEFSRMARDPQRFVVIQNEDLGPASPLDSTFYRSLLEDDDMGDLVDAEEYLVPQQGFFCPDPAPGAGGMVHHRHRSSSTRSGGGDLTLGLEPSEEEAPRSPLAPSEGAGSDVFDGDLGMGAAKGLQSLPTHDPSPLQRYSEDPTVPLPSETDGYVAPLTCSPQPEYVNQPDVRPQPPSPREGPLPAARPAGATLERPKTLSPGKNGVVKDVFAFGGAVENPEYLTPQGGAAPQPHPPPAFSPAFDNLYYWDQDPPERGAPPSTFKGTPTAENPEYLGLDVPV

Assay [3] deals with T2, EGFR kinase (Homo sapiens, UniProt P00533).
T2 construct: Recombinant intracellular fragments of EGFR and erbB2; made in house; host or cells: baculovirus/Sf21 insect cells
T2 sequence (P00533 669-1210 limits assumed): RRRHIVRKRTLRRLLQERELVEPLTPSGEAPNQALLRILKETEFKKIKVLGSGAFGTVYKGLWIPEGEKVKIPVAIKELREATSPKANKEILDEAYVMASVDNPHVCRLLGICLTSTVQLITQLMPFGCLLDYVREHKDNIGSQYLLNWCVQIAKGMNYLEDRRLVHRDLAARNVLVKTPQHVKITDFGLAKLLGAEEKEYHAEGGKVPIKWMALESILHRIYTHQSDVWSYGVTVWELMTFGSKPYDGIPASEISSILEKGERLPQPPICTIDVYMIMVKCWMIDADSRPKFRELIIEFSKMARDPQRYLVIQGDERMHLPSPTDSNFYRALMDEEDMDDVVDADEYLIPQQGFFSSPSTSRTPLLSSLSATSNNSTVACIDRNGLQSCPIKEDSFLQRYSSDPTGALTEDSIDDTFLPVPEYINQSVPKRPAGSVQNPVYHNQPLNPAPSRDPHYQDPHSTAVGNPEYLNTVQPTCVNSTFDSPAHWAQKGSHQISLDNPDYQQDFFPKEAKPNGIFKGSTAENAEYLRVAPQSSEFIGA
Kind of assay: Protein tyrosine kinase phosphorylation assay, Test (a): EGFR. Format: biochemical. As to conditions: inhibition of phosphorylation of a tyrosine containing polypeptide substrate by EGFR kinase; ATP at Km. As for the experimental part:
as §1, §2, §3, §4, §5

Where a name gives a salt, the structure may show the parent alone.

The term IC50 denotes the concentration at which inhibition is half-maximal. `C[C@H](CN(C)C)Oc1cccc2ncnc(Nc3ccc(OCc4cscn4)c(Cl)c3)c12` [Example 23]: the results for the IC50 in assay [1], in assay [2] and in assay [3] were 0.001 µM, 0.002 µM and 0.068 µM, respectively.
For the molecule `COc1cc(Nc2ncnc3cccc(OCCN(C)C)c23)ccc1OCc1cc(C)on1` [Example 37, 5-[2-(Dimethylamino)ethoxy]-N-{3-methoxy-4-[(5-methylisoxazol-3-yl)methoxy]phenyl}quinazolin-4-amine], the IC50 in assay [1] stood at 0.003 µM; in assay [2] it was 0.017 µM; in assay [3], 8.4 µM.
With `C[C@H](CN(C)C)Oc1cccc2ncnc(Nc3ccc(Sc4nccn4C)c(Cl)c3)c12` [Example 53, N-{3-Chloro-4-[(1-methyl-1H-imidazol-2-yl)thio]phenyl}-5-[(1R)-2-(dimethylamino)-1-methylethoxy]quinazolin-4-amine dihydrochloride], the IC50 was 0.001 µM in assay [1], 0.005 µM in assay [2] and 0.064 µM in assay [3].
Taken in the same sequence, the figures for `COc1cc(Nc2ncnc3cccc(OC(C)CN(C)C)c23)ccc1Oc1ccccc1` (stereo not drawn) [Example 54, 5-[2-(Dimethylamino)-1-methylethoxy]-N-(3-methoxy-4-phenoxyphenyl)quinazolin-4-amine] were 0.003 µM, 0.002 µM and 4.3 µM.
The like results for `CN(C)CC(C)(C)Oc1cccc2ncnc(Nc3ccc(OCc4ccccn4)c(Cl)c3)c12` [Example 56, N-[3-Chloro-4-(pyridin-2-ylmethoxy)phenyl]-5-[2-(dimethylamino)-1,1-dimethylethoxy]quinazolin-4-amine] were, in that order, 0.002 µM, 0.002 µM and 0.49 µM.
